In patent publication US20160101148A1, “TREATMENT AND PREVENTION OF BACTERIAL SKIN INFECTIONS USING ORITAVANCIN” (priority 2013, published 2016):
In brackets after ≈: the same amount, converted by molar mass.

Experiments:
[1] = tested on: ABSSSI suspected or proven to be due to a gram-positive pathogen, including MRSA; test: SOLO I Phase 3 trial, efficacy: single dose IV oritavancin versus IV vancomycin for 7 to 10 days; assay type: in vivo, human; conditions: for Difference in lesion size reduction ≧20% rate (oritavancin minus vancomycin) / Difference in primary efficacy endpoint rate (oritavancin minus vancomycin): ECE; for Lesion Size Reduction ≧20% From Baseline / Primary efficacy endpoint response rate (cessation of spread, absence of fever, no rescue antibiotics): ECE 48 to 72 hours; for Difference in investigator-assessed clinical cure rate (oritavancin minus vancomycin) / Difference in sustained clinical cure rate (oritavancin minus vancomycin): PTE; for Investigator-Assessed Clinical Cure / Sustained Clinical Cure: PTE 7 to 14 days after EOT
Description: The primary efficacy endpoint comprised: 1) cessation of spreading or reduction in the size of the baseline lesion, 2) absence of fever, and 3) no rescue antibiotic, at 48 to 72 hours, for the modified intent to treat population.
The study design was consistent with current guidelines from FDA (U.S. Food and Drug Administration. Guidance for Industry Acute Bacterial Skin and Skin Structure Infections: Developing Drugs for Treatment (DRAFT GUIDANCE). Available via Internet at the URL containing: fda.gov/downloads/Drugs/GuidanceComplianceRegulatoryInformation/Guidances/ucm071185.p df) and EMA (European Medicines Agency Committee for Medicinal Products for Human Use. Addendum to the note for guidance on evaluation of medicinal products indicated for treatment of bacterial infections (CHMP/EWP/558/95 REV 2) to address indication-specific clinical data (draft). 2012. Available via Internet at the URL containing: ema.europa.eu/docs/en_GB/document_library/Scientific_guideline/2012/07/WC500129443.pdf) and Foundation for National Institutes of Health guidance was considered for analyses (Talbot G H etl. Clin Infect Dis. 2012. 55(8):1114-1121). The protocol was approved by institutional review boards/ethics committees and all patients provided written informed consent. The study was conducted from January 2011 through October 2012 at 46 study centers in Mexico, Spain, Germany, Romania, Russia, Ukraine, Israel, India, and the United States. […] Aztreonam and metronidazole were permitted for gram-negative and anaerobic cover, respectively.
Clinical evaluations were performed at the following time points: Early Clinical Evaluation (ECE) at 48 to 72 hours after the initiation of the study drug infusion, End of Therapy (EOT) at Day 7 to Day 10 or the day the patient stopped study drug or changed to non-study drug therapy for primary ABSSSI, Day 10 Evaluation defined as 10 days after the initiation of the study drug infusion, Post Therapy Evaluation (PTE) at 7 to 14 days after the EOT visit, and Safety Follow-up at 60 days (+7 days) after the initiation of the study drug infusion. Safety data was reviewed by a data monitoring committee.
Eligible patients were to be at least 18 years of age with diagnosis of ABSSSI that was suspected or proven to be due to a gram-positive pathogen and which required at least 7 days of IV therapy. The diagnosis of ABSSSI was defined as wound infections (either traumatic or surgical in origin), cellulitis/erysipelas or major cutaneous abscess with surrounding erythema, edema, and/or induration of at least 75 cm^2. The onset of wound infections or cellulitis/erysipelas must have occurred within 7 days prior to randomization. Patients also had to present with signs and symptoms of systemic inflammation. Patients were not eligible to participate if they received systemic or topical antibacterial therapy with gram-positive activity within the preceding 14 days.
The primary efficacy endpoint was a composite outcome of 1) cessation of spreading or reduction in the size of the baseline lesion, 2) absence of fever, and 3) no rescue antibiotic medication at the ECE visit, for the mITT population.
The secondary efficacy outcomes were as follows: 1) Lesion area decrease by ≧20% from Baseline at ECE, 2) Investigator-Assessed Clinical Response at PTE, 3) Sustained Clinical Response at PTE.
The analyses were performed for patients who had lesion area assessments at baseline and ECE using the mITT and CE populations.
If a patient had clinical failure assessed beyond the PTE visit window, the patient was considered as a clinical failure. If a patient had clinical success assessed beyond the PTE visit window, a) and if the patient had clinical failure before the PTE visit, the patient was considered a clinical failure at PTE or b) if the patient had clinical success also before the PTE visit, the patient was considered a clinical success at PTE.

[2] = tested on: S. aureus strains (14 mecC MRSA, 2 mecA MRSA, ATCC 29213 MSSA); test: Broth microdilution MIC determination; assay type: cell-based, Staphylococcus aureus
Description: The S. aureus (SA) strains used in this study were: ATCC 43300 (mecA methicillin-resistant SA [MRSA]); ATCC 33591 (mecA MRSA), ATCC 29213 (methicillin-susceptible SA; quality control strain) and 14 mecC MRSA obtained from the Staten Serum Institute (Copenhagen, Denmark).
Tests with oritavancin included polysorbate-80 (final test concentration of 0.002%) as described (CLSI 2012a; Arhin et al., 2008). Tests with daptomycin included CaCl2 at a concentration of 50 mg/L. MICs were read after 24 h incubation.

[3] = SOLO II Phase 3 trial, safety; assay type: in vivo, human
Text: Safety profiles, measured at any point up to 60 days after treatment, were similar across treatment groups in SOLO II.

CN[C@H](CC(C)C)C(=O)N[C@H]1C(=O)N[C@@H](CC(N)=O)C(=O)N[C@H]2C(=O)N[C@H]3C(=O)N[C@H](C(=O)N[C@H](C(=O)O)c4cc(O)cc(O)c4-c4cc3ccc4O)[C@H](O[C@H]3C[C@](C)(N)[C@@H](O)[C@H](C)O3)c3ccc(c(Cl)c3)Oc3cc2cc(c3O[C@@H]2O[C@H](CO)[C@@H](O)[C@H](O)[C@H]2O[C@H]2C[C@](C)(NCc3ccc(-c4ccc(Cl)cc4)cc3)[C@@H](O)[C@H](C)O2)Oc2ccc(cc2Cl)[C@H]1O [Oritavancin, N^DISACC-(4-(4-chlorophenyl)benzyl)A82846B]
Efficacy versus vancomycin for ECE and PTE endpoints ([1]; 10% non-inferiority margin): non-inferior to vancomycin
Patients both early treatment responders (lesion size reduction of ≧20% at ECE) and clinical successes at PTE ([1]; CE population): more than 84%
Difference in lesion size reduction ≧20% rate (oritavancin minus vancomycin) ([1]; CE): 1.9%
Difference in primary efficacy endpoint rate (oritavancin minus vancomycin) ([1]; CE): 1.2%
Lesion Size Reduction ≧20% From Baseline ([1]; CE): 90.6%
Primary efficacy endpoint response rate (cessation of spread, absence of fever, no rescue antibiotics) ([1]; CE): 87.3%
Difference in investigator-assessed clinical cure rate (oritavancin minus vancomycin) ([1]; CE): −1.3%
Difference in sustained clinical cure rate (oritavancin minus vancomycin) ([1]; CE): −3.9%
Investigator-Assessed Clinical Cure ([1]; CE): 91.9%
Sustained Clinical Cure ([1]; CE): 79.4%
Difference in lesion size reduction ≧20% rate (oritavancin minus vancomycin) ([1]; MRSA MicroE): 7.5%
Difference in primary efficacy endpoint rate (oritavancin minus vancomycin) ([1]; MRSA MicroE): 1.8%
Lesion Size Reduction ≧20% From Baseline ([1]; MRSA MicroE): 96.5%
Primary efficacy endpoint response rate (cessation of spread, absence of fever, no rescue antibiotics) ([1]; MRSA MicroE): 88.4%
Difference in investigator-assessed clinical cure rate (oritavancin minus vancomycin) ([1]; MRSA MicroE): −2.2%
Difference in sustained clinical cure rate (oritavancin minus vancomycin) ([1]; MRSA MicroE): −2.8%
Investigator-Assessed Clinical Cure ([1]; MRSA MicroE): 95.3%
Sustained Clinical Cure ([1]; MRSA MicroE): 81.4%
Difference in lesion size reduction ≧20% rate (oritavancin minus vancomycin) ([1]; MRSA MicroITT): 6.4%
Difference in primary efficacy endpoint rate (oritavancin minus vancomycin) ([1]; MRSA MicroITT): 0.8%
Lesion Size Reduction ≧20% From Baseline ([1]; MRSA MicroITT): 90.4%
Primary efficacy endpoint response rate (cessation of spread, absence of fever, no rescue antibiotics) ([1]; MRSA MicroITT): 80.8%
Lesion Size Reduction ≧20% From Baseline ([1]; MRSA MicroITT, listed as oritavancin): 90.4%
Difference in investigator-assessed clinical cure rate (oritavancin minus vancomycin) ([1]; MRSA MicroITT): −0.3%
Difference in sustained clinical cure rate (oritavancin minus vancomycin) ([1]; MRSA MicroITT): −0.7%
Investigator-Assessed Clinical Cure ([1]; MRSA MicroITT): 82.7%
Sustained Clinical Cure ([1]; MRSA MicroITT): 68.3%
Difference in lesion size reduction ≧20% rate (oritavancin minus vancomycin) ([1]; mITT): 4.1%
Difference in primary efficacy endpoint rate (oritavancin minus vancomycin) ([1]; mITT): 3.4%
Lesion Size Reduction ≧20% From Baseline ([1]; mITT): 86.9%
Primary efficacy endpoint response rate (cessation of spread, absence of fever, no rescue antibiotics) ([1]; mITT): 82.3%
Lesion Size Reduction ≧20% From Baseline ([1]; mITT, listed as oritavancin): 86.9%
Primary efficacy endpoint response rate (cessation of spread, absence of fever, no rescue antibiotics) ([1]; mITT, listed as oritavancin): 82.3%
Difference in investigator-assessed clinical cure rate (oritavancin minus vancomycin) ([1]; mITT): −0.4%
Difference in sustained clinical cure rate (oritavancin minus vancomycin) ([1]; mITT): −2.6%
Investigator-Assessed Clinical Cure ([1]; mITT): 79.6%
Sustained Clinical Cure ([1]; mITT): 67.2%
Investigator-Assessed Clinical Cure ([1]; mITT, listed as oritavancin): 79.6%
Sustained Clinical Cure ([1]; mITT, listed as oritavancin): 67.2%
MIC90 ([2]; Staphylococcus aureus): 0.06 µg/mL (≈ 0.0335 µM)
MIC ([2]; Staphylococcus aureus, 57147 MRSA (mecC)): 0.03 µg/mL (≈ 0.0167 µM)
MIC ([2]; Staphylococcus aureus, 70611 MRSA (mecC)): 0.06 µg/mL (≈ 0.0335 µM)
MIC ([2]; Staphylococcus aureus, 73348 MRSA (mecC)): 0.06 µg/mL (≈ 0.0335 µM)
MIC ([2]; Staphylococcus aureus, 73415 MRSA (mecC)): 0.06 µg/mL (≈ 0.0335 µM)
MIC ([2]; Staphylococcus aureus, 73617 MRSA (mecC)): 0.03 µg/mL (≈ 0.0167 µM)
MIC ([2]; Staphylococcus aureus, 73829 MRSA (mecC)): 0.03 µg/mL (≈ 0.0167 µM)
MIC ([2]; Staphylococcus aureus, 75814 MRSA (mecC)): 0.06 µg/mL (≈ 0.0335 µM)
MIC ([2]; Staphylococcus aureus, 76918 MRSA (mecC)): 0.03 µg/mL (≈ 0.0167 µM)
MIC ([2]; Staphylococcus aureus, 77431 MRSA (mecC)): 0.03 µg/mL (≈ 0.0167 µM)
MIC ([2]; Staphylococcus aureus, 77601 MRSA (mecC)): 0.03 µg/mL (≈ 0.0167 µM)
MIC ([2]; Staphylococcus aureus, 77950 MRSA (mecC)): 0.03 µg/mL (≈ 0.0167 µM)
MIC ([2]; Staphylococcus aureus, 77964 MRSA (mecC)): 0.06 µg/mL (≈ 0.0335 µM)
MIC ([2]; Staphylococcus aureus, 78085 MRSA (mecC)): 0.06 µg/mL (≈ 0.0335 µM)
MIC ([2]; Staphylococcus aureus, 78651 MRSA (mecC)): 0.06 µg/mL (≈ 0.0335 µM)
MIC ([2]; Staphylococcus aureus, ATCC 29213 (MSSA)): 0.06 µg/mL (≈ 0.0335 µM)
MIC ([2]; Staphylococcus aureus, ATCC 29213 / ATCC 33591 / MRSA / MSSA, ATCC 33591 MRSA (mecA)): 0.06 µg/mL (≈ 0.0335 µM)
MIC ([2]; Staphylococcus aureus, ATCC 29213 / ATCC 43300 / MRSA / MSSA, ATCC 43300 MRSA (mecA)): 0.06 µg/mL (≈ 0.0335 µM)
MIC ([2]; Staphylococcus aureus, QC and mecA strains): 0.06 µg/mL (≈ 0.0335 µM)
MIC range ([2]; mecC strains): 0.03 to 0.06 µg/mL
Treatment emergent adverse events considered by investigators as related to study drug [3]: 21.7%
Patients reported to experience at least one adverse event ([3]; up to 60 days after treatment): 50.9%
